Legend:
Type in all cases: in vivo, mouse
EAE-induced mice = test: EAE induction and scoring (MOG35-55/CFA + pertussis toxin); details: wild type mice; 2 mg/kg (1 mg/kg s.c. and 1 mg/kg i.p.) in 45% DMSO, 1 day prior to and daily for 30 days; vs DMSO alone
Procedure: C57BL/6 and tcrα^−/− mice on the C57BL/6 background were purchased from The Jackson Laboratories. Mice were bred and housed under specific pathogen-free conditions at Cornell University or the University of Turku. For adenosine receptor blockade experiments, mice were given drinking water supplemented with 0.6 g/L of caffeine (Sigma) or 2 mg/kg SCH58261 (1 mg/kg s.c. and 1 mg/kg i.p.) in DMSO (45% vol. in PBS) or 45% DMSO alone starting 1 day before EAE induction and continuing throughout the experiment. All procedures performed on mice were approved by the relevant animal review committee.
EAE was induced by subjecting mice to the myelin oligodendrocyte glycoprotein (“MOG”) EAE-inducing regimen as described in Swanborg, “Experimental Autoimmune Encephalomyelitis in Rodents as a Model for Human Demyelinating Disease,” Clin. Immunol. […] Briefly, a 1:1 emulsion of MOG35-55 peptide (3 mg/ml in PBS) (Invitrogen) and complete Freund's adjuvant (CFA, Sigma) was injected subcutaneously (50 μl) into each flank. Pertussis toxin (PTX, 20 ng) (Biological Laboratories Inc.) was given intravenously (200 μl in PBS) at the time of immunization and again 2 days later. Mice were scored daily for EAE based on disease symptom severity; 0=no disease, 0.5 -1=weak/limp tail, 2=limp tail and partial hind limb paralysis, 3=total hind limb paralysis, 4=both hind limb and fore limb paralysis, 5=death. Mice with a score of 4 were euthanized.
Wild type mice were given 1 mg/kg of SCH58261 in DMSO or DMSO alone both i.p. and s.c. (for a total of 2 mg/kg) 1 day prior to EAE induction and daily for 30 days throughout the course of the experiment (FIG. 7C).

ICAM-1 = ICAM-1 expression at the choroid plexus after EAE induction (immunohistochemistry); details: wild type mice, day 15 post-EAE induction; 2 mg/kg daily; vs DMSO
Procedure: Mice were treated with the A2a adenosine receptor antagonist SCH58261 2 mg/kg (1 mg/kg given s.c. and 1 mg/kg given i.p.) in DMSO (n=4 mice/group) or DMSO alone (n=5 mice/group) 1 day prior to and daily up to day 30 following EAE induction. […] Frozen tissue sections from day 15 post-EAE induction in SCH58261 and DMSO treated mice were examined for ICAM-1 expression at the choroid plexus. WT treated DMSO (left) or SCH58261 (right) and stained for ICAM-1 (red staining, white arrows) and DAPI (blue, nuclei) at 40× magnification. Images are from 4 separate mice.
Anesthetized mice were perfused with PBS, and brains, spleens, and spinal cords were isolated and snap frozen in Tissue Tek-OCT medium. […]
(§1) As CD73 catalyzes the breakdown of AMP to adenosine and ARs are expressed in the CNS (Tsutsui et al., “A1 Adenosine Receptor Upregulation and Activation Attenuates Neuroinflammation and Demyelination in a Model of Multiple Sclerosis,” J. Neurosci. 24:1521-1529 (2004)); Rosi et al., The Influence of Brain Inflammation Upon Neuronal Adenosine A2B Receptors,” J. Neurochem. 86:220-227 (2003), which are hereby incorporated by reference in their entirety), it was next determined if AR signaling is important during EAE progression. […] Since CD73 is highly expressed on the choroid plexus (FIG. 6C), it was next determined if ARs are also expressed on the choroid plexus. […]

[1] = test system: CNS lymphocyte infiltration; test: CD4+ infiltrating lymphocytes in brain and spinal cord after EAE induction (immunohistochemistry); details: wild type mice, day 15 post-EAE induction; 2 mg/kg daily; vs DMSO treated mice
Procedure: FIGS. 7A-7D show adenosine receptor blockade protects mice from EAE development. […] Results are from one experiment (n=5 mice per group). […] Samples were run in triplicate; error bars represent the standard error of the mean. […] Eight anatomically similar fields per brain and 4 fields per spinal cord per mouse were analyzed at 10×magnification (n=4 mice). Error bars represent the standard error of the mean.
Anesthetized mice were perfused with PBS, and brains, spleens, and spinal cords were isolated and snap frozen in Tissue Tek-OCT medium. Five μm sections (brains in a sagittal orientation) were affixed to Supefrost/Plus slides (Fisher), fixed in acetone, and stored at −80° C. […]
as §1

blood brain barrier = test: FITC-Dextran extravasation through the brain endothelium; details: wild type mice (FIG. 16)
Procedure: In order to examine the effects of caffeine, a general adenosine receptor antagonist, on blood brain barrier permeability, mice were fed caffeine for several days and then injected with FITC Dextran, commonly used to assess endothelial permeability.
More particularly, mice were fed 0.6 g/l caffeine (Sigma, St. Louis, Mo.) in water or regular water ad lib for five days. Mice were injected IP with FITC Dextran (10,000 MW, Molecular Probes, Eugene, Oreg.) and after 30 minutes mice were perfused with ice cold PBS via the left ventricle. Brains were removed and snap frozen in OCT (Tissue Tek, Torrance, Calif.) and stored at −80° C. until sectioning. Tissue sections (5 μm) were stained with hematoxylin for light microscopy and with DAPI for a fluorescent counterstain.

With `Nc1nc2c(cnn2CCc2ccccc2)c2nc(-c3ccco3)nn12` [SCH58261] the “EAE development (mean EAE score)” value (EAE-induced mice) was “dramatically protected against EAE development”, the “ICAM-1 up regulation on the choroid plexus” value (ICAM-1) was “prevented the up regulation of ICAM-1” and the “frequency of CD4 lymphocytes in the brain and spinal cord” value [1] was “significantly lower frequency of CD4 lymphocytes in the brain and spinal cord”. For the same compound, the “FITC-Dextran extravasation across the blood brain barrier” value (blood brain barrier) was “inhibit FITC-Dextran extravasation”.

— US20190083497A1, “MODULATION OF BLOOD BRAIN BARRIER PERMEABILITY” (Cornell University, priority 2008, published 2019)
